Data: patent US12714721B2, “Methods of treatment of a cytokine storm” (Loma Linda University Health, priority 2020, dated 2026)

Tests used:
Assay type in all cases: in vivo, mouse
lung = experiment: Lung immunocytochemistry (CD31, α-SMA); settings: lung sections (FIG. 14A)
Method: Acute Lung Injury Induced by LPS—Female C57BL/6 mice received a sublethal or lethal dose of LPS from Escherichia coli (0127: B8 strain, Sigma Aldrich, St. Louis, MO, USA). LPS in sterile PBS was administered intraperitoneally at 20- or 25-mg/kg body weight.
Treatment for Lung Studies-Lenti-IGF-I was administered intramuscularly 24 h before LPS injection. The TRP and ORAI calcium channel blocker BTP-2 (YM-58483 16 mg/kg, Cayman Chemical, Ann Arbor, MI, USA) was given IP 1 h before LPS injection. Some of the animals received a combination of lenti-IGF-I and BTP-2. Mice in control groups were injected with an equal volume of PBS.
Lung Immunocytochemistry—After the mice were sacrificed, one part of the lung was immediately cut, fixed in a 10% neutral-buffered formalin solution, embedded in paraffin, and used for histopathological examination. Ten-micrometer-thick sections were cut, deparaffinized, and hydrated. All lung serial sections were incubated at 4° C. overnight with one of two antibodies: rabbit polyclonal antibody against PECAM (CD31) (Santa Cruz Biotechnology, Dallas, TX, USA) or rabbit polyclonal antibody against α-SMA (Abcam, Cambridge, MA, USA). After washing, biotinylated goat anti-rabbit IgG (1:200, Vector Labs, Burlingame, CA, USA) were applied to the sections for 30 min at room temperature. […]

LPS-induced AKI mice = experiment: Survival test with a lethal dose of LPS (25 mg/kg body weight); settings: LPS 25 mg/kg i.p.; for overall survival rate: end of the experiment (144 h) (FIG. 1D); for mortality: pretreatment (FIG. 1D)
Method: Different components of the treatment regimen were tested, individually and in combination, for their effect on prolonging survival or affecting mortality. A survival test was performed with a lethal dose of LPS (25 mg/kg body weight). As LPS causes AKI, a mouse model was utilized where AKI was induced by parenteral injection of LPS. Animals were treated with IGF-1 and Vitamin C, individually and in combination to evaluate their effect on survival (FIG. 1C). Kaplan Meier survival analysis was conducted between LPS induced systemic-sepsis animals treated with or without IGF-1, Vitamin C or combination therapy measured over the 96 hour-study period. […] No mortality was observed among healthy mice.
Different components of the treatment regimen were tested, individually and in combination, for their effect on prolonging survival or affecting mortality. A survival test was performed with a lethal dose of LPS (25 mg/kg body weight). Animals were treated with all components individually and in combination to evaluate their effect on survival. As LPS causes AKI, a mouse model was utilized where AKI was induced by parenteral injection of LPS. Pretreatment with IGF-1 monotherapy, BTP-2 monotherapy, and IGF-1+BTP-2 combination therapy was evaluated for effect in the mouse model to prevent the animals from succumbing to death due to organ failure in AKI. Mice (7 per groups) were i.p. injected with a lethal dose of LPS (25 mg/kg body weight). A group of mice received an i.p. injection of BTP-2 (16 mg/kg) one hour before LPS injection, and another group of mice received i.m. injection of Lenti-IGF1, 24 hours before LPS injection. A separate group of mice received a combination of IGF-1+BTP-2 as pretreatment. Mice were monitored every 6 hours. […] The mortality of LPS-injected mice that received an IGF-1 (labeled as LPS+IGF-1) pretreatment was 60% within 36 hours, and 88% at the end of the experiment (144 h). Mortality in LPS-injected mice that received BTP-2 (labeled as LPS+BTP-2) pretreatment was 0% within 36 hours, 30% within 48 hours and 72% at 144 hour-time point. However, the mortality in LPS-injected mice that received an IGF-1 and BTP-2 (labeled as LPS+IGF-1+BTP-2) pretreatment was comparatively low, which reached only 15% within 48 hours, and at the end of the 144 hour-time point reached only up to 43% (compared to LPS-No Tx). […] Meanwhile, no mortality was observed among mice treated with PBS, i.e., healthy group.
(§1) Experimental Design for IGF-1 and BTP-2 studies—The animal experiments involved B6 mice between 5-8 weeks of age. Most experiments involved five groups of animals: (1) healthy, (2) LPS untreated (LPS-No Tx), (3) IGF-I in vivo gene therapy one day before LPS injection (LPS+IGF-1), (4) BTP-2 16 mg/kg i.p. at the start of the study and the (5) combined therapy with IGF-I and BTP-2 (LPS-IGF-1+BTP-2). For the survival experiment, a lethal dose of LPS (25 mg/kg) was used and all of the untreated animals died by 72 hours. In the other experiments, a sublethal dose of LPS (20 mg/kg) was used.
(§2) LPS induced sepsis and subsequent AKI—Female C57BL/6 mice received a sublethal or lethal dose of LPS from E. coli (0127: B8 strain, Sigma Aldrich, St. Louis, MO, USA) in a concentration of 20 or 25 mg/kg body weight administrated in sterile PBS by intraperitoneal injection.
(§3) Treatment—In a preventive therapeutic strategy, some of the mice received an intramuscular injection of Lenti-IGF-1 24 hours before LPS injection; whereas, the calcium signaling blocker BTP-2 (16 mg/kg, Cayman Chemical) was administrated 1 hour before LPS injection. Some of the animals received a combination of Lenti-IGF-1 and BTP-2. Control group mice were injected with an equal volume of PBS.

[1] = test system: LPS induced sepsis and subsequent AKI; experiment: Renal function assessment: serum creatinine in LPS induced AKI
Method: as §1, §2, §3
[…] Serum creatinine (CREA) were detected by Creatinine Assay Kit (Cayman Chemicals).

[2] = at 48 hours after LPS (FIG. 6A)

Molecule	immunocytochemical evaluation of CD31 (% of the area of CD31 staining) (lung)	overall survival rate (LPS-induced AKI mice) [%]	mortality (LPS-induced AKI mice; end of the experiment (144 h)) [%]	mortality (LPS-induced AKI mice; within 36 hours) [%]	mortality (LPS-induced AKI mice; within 48 hours) [%]	serum creatinine [1, 2]	serum creatinine ([1]; LPS i.p. day 0, measured 7 days later, IGF-I gene therapy one day prior to LPS (FIG. 1B))
Cc1nnsc1C(=O)Nc1ccc(-n2nc(C(F)(F)F)cc2C(F)(F)F)cc1 [BTP-2, 3,5-bis(trifluoromethyl)pyrazole derivative]	significantly improved	28	72	0	30	normalized	
IGF-I: Insulin-like Growth Factor, delivered by a lentiviral vector engineered to express IGF-I injected into skeletal muscle	significantly improved	12.5	88	60		improved	normalized
